Key:
THP-1 cell viability = assay type: cell-based; conditions: human, THP-1 cells, read-out: reduction of viability of the THP-1 cells
Protocol: MTT is bioreduced by viable cells into a coloured formazan product that is soluble in DMSO. Thus the quantity of formazan product is directly proportional to the number of living cells in culture, and can be measured using a spectrophotometer at 570 nm. These compounds reduce MTT in the absence of cells, resulting in a change in substrate colour from yellow to purple. This activity is dependent on the reducing power of each compound and was measured at 5 concentrations (data not shown). The ability of compounds to reduce MTT was not related to their ability to inhibit NFkB-activity.

A10 = experiment: Proliferation of rat aorta media cell line A10; assay type: cell-based; conditions: 72 h, three days, read-out: VSMC proliferation - IC50 (μM), A10
Protocol: Human umbilical vein smooth muscle cells (HUVSMC), tissue explants from a neonate (HRI— passage 2), were seeded into 96 well plates at 1×10^3 cells per well, and allowed to attach for 24 hours. They were then washed twice and incubated in medium without FBS for 24-48 hours to serum-starve them. Test compounds were prepared in medium without FBS and added to the plates and incubated for one hour. Medium with FBS was added to give a final concentration of 10% and the plates incubated for 5 days until the controls were just confluent. Final analogue concentration was therefore either a series from 150 μM to 1.2 μM, or single concentrations of 10 μM. The difference in absorbance between treated cells and untreated cells was calculated using the formula, test/control*100, to obtain the percentage change caused by the test compound. As well, an IC50 for each compound was calculated.
The effect of test compounds a rat aortic smooth muscle cell line (A7r5) and another cell line from the media of rat aorta (A10) was examined. The methodology was the same as for HUVSMC, except that the cells were treated with compound for three days.

IL-6 = IL-6 production by murine splenocytes; assay type: cell-based, mouse; conditions: 10 μM; Con A
Protocol: Male Skh-1 (hairless) mice, approximately six weeks old were killed by cervical dislocation. Single cell suspensions were made from the spleen and erythrocytes were lysed in buffer (0.14M NH4Cl, 17 mM Tris, pH 7.2). The remaining splenocytes were cultured in RPMI-1640 (Gibco) supplemented with 10% (v:v) FBS, 2 mM L-glutamine, pen/strep and 50 μM 2-mercaptoethanol. Splenocytes were added to quadruplicate wells containing either the T cell mitogen concanavalin A (Con A, Sigma-Aldrich—0. 4 μg/well), the B-cell mitogen LPS (Sigma-Aldrich—1 μg/well) or no mitogen, as well as test compound at a concentration of 10 μM in DMSO. Samples were analysed after a 3 day incubation at 37° C. in 5% CO2 in air. Cell viability was assessed by adding MTT to each well, incubating for a further 4 hrs and then developing colour with 0.04N HCl in isopropanol. Supernatant samples were frozen at −80° C. and IL-6, IFN-γ and TNFα were detected in triplicate using ELISA kits (BD Biosciences).

[1] = system: Dark Agouti rats (air pouch); experiment: Rat air pouch assay (serum-treated zymozan); assay type: in vivo; conditions: for Leucocytes in lavage fluid (×10^−7) / Polymorphs in tissue sections (per 100 squares): 4 h; for activity in the rat air pouch assay: in vivo
Protocol: Air pouches were raised on the dorsum of female Dark Agouti rats, approximately seven weeks of age. To promote the formation of a cellular membrane lining the inside of each pouch, the pouches were maintained by re-inflating on days 2 and 5 after the initial injection of air. On re-inflation, the pouch was first deflated to ensure the needle was positioned correctly, before being re-inflated with 2 mL of sterile air. Using this protocol, the pouches remained inflated until use on day 7, when they were injected with 0.5 ml of either test compound or vehicle control. After 15 min, air pouches were injected with serum-treated zymozan (500 μg). Lavage of the air pouch was performed at 4 h and leucocytes counted, after which the rats were killed, the air pouch excised and processed in formalin for histology. The sections were blinded to the person counting. Using a graticule with 100 squares and the 40× objective, the number of polymorphs were counted in the pouch lining at 10 different and non-adjacent sites. Group sizes were 5-6 rats. Data were analysed for statistical significance within each experiment and using an unpaired t test.

eNOS = eNOS mRNA expression in HAECs (real-time PCR); assay type: cell-based, human; conditions: 10 μM; for increase of eNOS mRNA over vehicle control (average): two more assays
Protocol: HAECs were grown as described above.

NFκB = NFκB promoter activity, beta-lactamase reporter THP-1 cells stimulated with TNFα; assay type: cell-based; conditions: 30 μM; TNFα-stimulated THP-1 cells
Protocol: The assay utilised a genetically modified THP-1 cell line containing a stably-transfected beta-lactamase reporter gene under control of the NFkB response element and GeneBLAzer® beta-lactamase technology (Invitrogen Corp). The cells respond to stimulation with TNFα, causing activation of the NFκB signaling pathway. Co-incubation of cells with TNFα and test material allows quantitative determination of the ability of test material to inhibit TNFa-stimulated beta-lactamase production. An inflammatory index was calculated as the ratio of beta-lactamase product to beta-lactamase substrate.
THP-1 cells were seeded into wells of a 96-well plate in the presence of RPMI 1640 medium. TNFα was added to each well to give a final concentration of 7.5 ng/ml and dialyzed bovine serum was added. Compounds dissolved in DMSO were then added. Each plate also contained no-cell controls, no-serum controls and serum controls. Plates were incubated for 5 h at 37° C. to allow for NFκB-stimulated beta-lactamase production. LiveBLAzer™ FRET B/G Substrate (CCF4-AM) substrate was then added to assay. Once CCFA-AM enters a cell, it is converted to negatively charged CCF4 by endogenous esterases. Excitation of this substrate at 409 nm leads to efficient FRET between the coumarin and fluorescein moieties, resulting in a green fluorescence detectable at 530 nm. The presence of beta-lactamase leads to cleavage of CCF4 and results in a loss of FRET, resulting in a robust blue fluorescent signal detectable at 460 nm. Thus, activity of beta-lactamase (a marker of NFκB-promoter activity) is measured as a product to substrate ratio (blue/green fluorescence ratio: 460 nm/530 nm).

Row | SMILES | cytotoxicity at 30 μM (THP-1 cell viability) | IC50 (A10) | IL-6 production in T cells (IL-6) | Leucocytes in lavage fluid (×10^−7) ([1]; 1 mM added to air pouch) | Polymorphs in tissue sections (per 100 squares) ([1]; 1 mM added to air pouch) | activity in the rat air pouch assay [1] | increase of eNOS mRNA over vehicle control (average) (eNOS) | NFκB promoter activity (NFκB) | further results
1 | COc1cccc(C2=Cc3ccc(O)cc3OC2)c1 [Cpd. 16, 7-Hydroxy-3′-methoxyisoflav-3-ene] | ~10% | 31 µM | reduced | 0.53 ± 0.35 ×10^−7 | 14.1 ± 15.8 per 100 squares | active | – | – | –
2 | Cc1c(O)ccc2c1OCC(c1cccc(O)c1)=C2 [Cpd. 14, 3′,7-Dihydroxy-8-methylisoflav-3-ene] | – | 10 µM | – | – | – | – | 86% | significantly inhibited | expression of eNOS (eNOS; 24 hrs, HAECs): significantly increased
3 | Oc1ccc2c(c1)OCC(c1ccc(Br)cc1)=C2 [Cpd. 21, 4′-Bromo-7-hydroxyisoflav-3-ene] | ~10% | – | – | – | – | – | – | – | –
4 | COc1ccc(C2=Cc3ccc(O)cc3OC2)cc1OC [Cpd. 18, 7-Hydroxy-3′,4′-dimethoxyisoflav-3-ene] | – | – | reduced | 0.51 ± 0.33 ×10^−7 | 6.3 ± 1.3 per 100 squares | active | 62% | significantly inhibited | Leucocytes in lavage fluid (×10^−7) ([1]; 100 μM added to air pouch): 0.88 ± 0.30 ×10^−7; Polymorphs in tissue sections (per 100 squares) ([1]; 100 μM added to air pouch): 23.2 ± 10.4 per 100 squares
5 | COc1ccc(C2=Cc3ccc(O)c(C)c3OC2)cc1OC [Cpd. 19, 7-Hydroxy-3′,4′-dimethoxy-8-methylisoflav-3-ene] | – | – | reduced | – | – | – | – | significantly inhibited | –
6 | Oc1ccc(C2=Cc3ccc(O)c(Br)c3OC2)cc1 [Cpd. 20, 4′,7-Dihydroxy-8-bromoisoflav-3-ene] | – | – | most marked | – | – | – | – | significantly inhibited | –
